Paper PMC4104029, “Mechanism of Action of Compound-13: An α1-Selective Small Molecule Activator of AMPK” (Chemistry & Biology, 2014)
Where two headings read alike, the source gives them in different places.

Key:
[1] = tested on: human AMPK; design: method as in Gómez-Galeno et al., 2010; settings: isoform combination not specified; ref Gómez-Galeno et al., 2010; read-out: half-maximal effective concentration (EC50); cited from earlier work
[2] = tested on: whole-body lipogenesis; settings: among a series of prodrugs; ref Gómez-Galeno et al., 2010; cited from earlier work
[3] = tested on: primary mouse hepatocytes (WT); assay: Lipid synthesis, [1-14C]acetate incorporation; format: cell-based; settings: for IC50: Mus musculus, Hepatocyte
Procedure: Figure 5 C13 Inhibits Lipid Synthesis and Fatty Acid Esterification in Mouse Hepatocytes in an AMPK-Dependent Manner (A) Mouse hepatocytes were treated with the indicated concentrations of C13 and labeled with [1-^14C]acetate for 3 hr. A769662 (100 μM) and AICAR (0.5 mM) were included as positive controls. Rates of fatty acid and sterol synthesis were estimated by incorporation into saponifiable and nonsaponifiable lipids. Results are expressed as the mean acetate incorporated in micromoles per gram-hour ± SD and are representative of two independent experiments. (B) Mouse hepatocytes were treated with the indicated compounds for 30 min and labeled with media containing 0.5 mM palmitic acid (1 mCi⋅mmol^−1 [9,10-^3H]palmitic acid) for an additional 60 min. Incorporation into triglyceride was determined as described in Experimental Procedures and results are expressed as palmitate incorporated in micromoles per gram-hour ± SD and are representative of three independent experiments. (C and D) Mouse hepatocytes from WT or AMPK-null (AMPKα1^−/− -α2^−/−) mice were incubated with the indicated concentrations of C13 and labeled with [1-^14C]acetate for 3 hr. Rates of fatty acid and sterol synthesis were estimated from incorporation into saponifiable (C) and nonsaponifiable (D) lipids. Results are expressed as percentage WT vehicle and represent the mean ± SD for three independent experiments. (E) Hepatocytes were treated with the indicated concentrations of C13 for 3 hr, and lysates were blotted with the indicated antibodies.
Lipid synthesis was determined by labeling adherent cultures of primary hepatocytes with [1-^14C]acetate. After overnight culture, hepatocytes (5 × 10^5) were washed with warm PBS and allowed to rest for 3 hr in fresh M199. Cells were treated with vehicle (0.1% DMSO) or the indicated compounds and labeled with 1 mCi⋅mmol^−1 [1-^14C]acetate for 3 hr. Cells were washed with ice-cold PBS, gently scraped into 0.5 ml PBS and saponified in methanolic KOH at 80°C for 1 hr. Nonsaponifiable and saponifiable lipids were extracted with petroleum ether before and after acidification with HCl. Lipid fractions were washed with 5% HAc, dried using N2, and dissolved in scintillant for the determination of [^14C] incorporation. Lipogenesis in hepatocytes from AMPKβ1/β2-KO mice was determined in media containing [^3H]acetate (0.2 mCi⋅mmol^−1). After 4 hr labeling, total lipids were extracted using the method of [Bligh and Dyer (1959)], and incorporated [^3H] was determined by scintillation counting. The results are expressed as micromoles acetate incorporated per gram-hour.

[4] = tested on: AMPK-KO (AMPKα1−/− -α2−/−) hepatocytes; assay: Lipid synthesis, [1-14C]acetate incorporation; format: cell-based, mouse
Procedure: Figure 5 C13 Inhibits Lipid Synthesis and Fatty Acid Esterification in Mouse Hepatocytes in an AMPK-Dependent Manner (A) Mouse hepatocytes were treated with the indicated concentrations of C13 and labeled with [1-^14C]acetate for 3 hr. A769662 (100 μM) and AICAR (0.5 mM) were included as positive controls. Rates of fatty acid and sterol synthesis were estimated by incorporation into saponifiable and nonsaponifiable lipids. Results are expressed as the mean acetate incorporated in micromoles per gram-hour ± SD and are representative of two independent experiments. […] Incorporation into triglyceride was determined as described in Experimental Procedures and results are expressed as palmitate incorporated in micromoles per gram-hour ± SD and are representative of three independent experiments. […] Results are expressed as percentage WT vehicle and represent the mean ± SD for three independent experiments. […]
Lipid synthesis was determined by labeling adherent cultures of primary hepatocytes with [1-^14C]acetate. […] Lipogenesis in hepatocytes from AMPKβ1/β2-KO mice was determined in media containing [^3H]acetate (0.2 mCi⋅mmol^−1). After 4 hr labeling, total lipids were extracted using the method of [Bligh and Dyer (1959)], and incorporated [^3H] was determined by scintillation counting. The results are expressed as micromoles acetate incorporated per gram-hour.

SMILES	EC50 [1]	inhibition of whole-body lipogenesis [2]	reduction of lipid synthesis ([3]; 1 μM, WT cells)	IC50 ([3]; [14C]acetate, 3 hr, read-out: IC50, inhibition of lipid synthesis, nonsaponifiable lipids)	IC50 ([3]; [14C]acetate, 3 hr, read-out: IC50, inhibition of lipid synthesis, saponifiable lipids)	concentration of maximal effect on lipid synthesis ([3]; [14C]acetate, 3 hr)	potency relative to A769662 ([3]; similar inhibition with 3 μM C13 and 100 μM A769662)	anti-lipogenic effect [4]	impairment of lipogenesis ([4]; highest concentrations of C13)
O=P(O)(O)c1ccc(-c2cc(O)on2)o1 [Compound C2, 5-(5-hydroxyl-isoxazol-3-yl)-furan-2-phosphonic acid]	6.3 nM								
CC(C)C(=O)OCOP(=O)(OCOC(=O)C(C)C)c1ccc(C2=NOC(=O)C2)o1 [Compound C13]		most potent inhibition	about 40%	1500 nM	1700 nM	30 µM	≈ 30 fold	resistant	≈ 20%
